The values below come from article PMC12951551, “Do Amino-Oxetanes Resemble Amides? A Matched Molecular Pairs Property and Structural Comparison” (Journal of Medicinal Chemistry, 2026).

One series can be described thus: Kinetic solubility. It counts as physicochemical. The following applies: for solubility at 24 h: aqueous pH buffer, aqueous buffer, kinetic from dmso stock, 37 °C, 600 µM start. How it is done:
(§1) Aqueous buffer preparation: pH 3: 50 µL of 1N hydrochloric acid was added to 500 mL of deionized water. The solution was titrated with 1N hydrochloric acid to pH 3, and back titrated with 1N sodium hydroxide. pH 7.4: 100 mM sodium phosphate buffer is made by adding 56.4 g of dibasic sodium phosphate and 10.3 g of monobasic sodium phosphate to 4 L of deionized water. 250 µL of 100 mM sodium phosphate buffer was diluted with 250 µL of deionized water. The solution was titrated with 1N hydrochloric acid to pH 7.4, and back titrated with 1N sodium hydroxide. pH 10: Fisher Scientific pH 10 buffer (SB116-500) containing potassium hydroxide, potassium carbonate, and potassium […]
pH 12.8: 30 mL of 1N NaOH was added to 200 mL of deionized water. The solution was titrated with 1N sodium hydroxide to pH 12.8 and back titrated with 1N hydrochloric acid.
Kinetic solubility: Samples were diluted to 600 µM in the appropriate pH buffer (pH: 3, 7.4, 10) and to 600 µM (assumed 100% solubility) in a DMSO standard. Samples were mixed thoroughly and incubated at 37 °C for 24 h.
Following incubation, pH samples were transferred to a […] PVDF (low binding) and filtered to remove any precipitate. The filtrate was collected and analyzed via MS/MS. The ratio of MS response (DMSO:pH) is taken and multiplied by the initial 600 µM concentration to determine the concentration (solubility) of the samples in pH buffers. […]
(§2) Permeability assay (RRCK): Ralph Russ canine kidney cells were used for permeability measurements using a cell monolayer in 96-transwell format. The detailed assay conditions have been reported previously.9 Test compounds were added to the donor wells and a buffer was added to the receiver wells to start the apical to basolateral transport assay.
(§3) Time 0 and 1.5 h incubation samples were taken for LC-MS/MS analysis. Apparent permeability (Papp) was calculated using the equation below (1), where Area is the surface area of the cell monolayer (0.0625 cm2), CD(0) is the […]

Series [1] can be described thus: Shake flask LogD (SFLogD) assay. It counts as physicochemical. The following applies: for logD: pH = 7.4, octanol/water shake flask, average of 2 runs unless otherwise stated. How it is done: as §2, §3
Series [2] is described as follows: Chemical (pH) stability assay. It counts as physicochemical. The following applies: 24 h under acidic, neutral, and basic conditions. How it is done:
Chemical stability assay: The chemical stability assay was performed in 384 well plate format (volume = […]).
Plates were prefilled with 70 µL of the appropriate buffer (pH 1.2, 7.4, 10) after which the wells were spiked with 5 µL of test compounds (1 mM). Samples were incubated for their timepoint of interest (1 h, 4 h, 24 h) at 37 °C after which the samples were diluted in MeCN (and pH 12.8 buffer for experiment at pH 1.2), mixed with an internal standard and […]
as §1, §3

Series [3] in a line: Permeability assay (RRCK). The format is in vitro ADME, canine. The following applies: dog, MDCK, apical to basolateral, average of 2 runs, footnote b = only one replicate.
The nature of series [4]: Experimental pKaH (amine basicity). It counts as physicochemical. The settings on record: for pKa: Table S2; for pKaH: text and Figure 6. The source says: The influence of basicity is an ongoing rationale for inclusion of the oxetanes in drug candidates, providing the potential to attenuate off-target effects including hERG channel inhibition. […] As comparison against the benzamide analogue is not possible, we instead looked at the head-to-head comparison between amino-oxetane 4a and benzylamine 18 (Figure ).

The test system of the next series is human hepatocytes. Nature of the series: Human Hepatocyte (HHEP) stability assay, clearance. The settings on record: human hepatocytes, 0.5 million cells/mL, 1 µM test compound. The format is in vitro ADME. How it is done: Human Hepatocyte (HHEP) assay: The high throughput HHEP stability assay was performed in a 384-well format (Greiner Bio-One, Monroe, NC). The cryopreserved HHEP were thawed, and re-suspended in Williams E medium (WEM, custom formula number 91-5233EC; Invitrogen, Grand Island, NY) supplemented with HEPES and Na2CO3. The cells were counted using the Trypan Blue exclusion method. A multidrop liquid dispenser (Multidrop DW, Thermo Scientific, Waltham, MA) was used to add the HHEP suspensions to the 384-well plates. The cell plates were covered and transferred to a Cytomat 2 incubator (ThermoFisher) and Biomek i7 (Beckman Coulter, Indianapolis, IN), equipped with three 3position MéCour heat exchangers. Test compounds were diluted on the Biomek i7 with buffer (15 µL) and added to the HHEP (30 µL). The final incubation contained 0.5 million cells/mL and 1 µM test compound in 45 µL total volume containing 0.01% DMSO. The incubation was carried out at 37 °C in the Cytomat 2 incubator (relative humidity ≥ 90%, 5% CO2/95% air). At various time points (2, 4, 11, 45, 75, 120, and 240 min), the plate was pulled out from the incubator by the Biomek i7 robot and put on the MéCour heated exchanger. Samples (3 µL) were transferred to a 384-well plate containing 30 µL acetonitrile with an internal standard (IS) to quench the reaction. Water (60 µL) was added to the quenched plate to dilute the organic solvent content for LC-MS/MS analysis. The plates were centrifuged at 3000 rpm for 10 min at 4 °C, sealed and subsequently analyzed using LC-MS/MS without further transfer of the supernatant.
Propranolol (CYP2D6), midazolam (CYP3A) and triazolam (CYP3A, low clearance), naloxone (UGT2B7), carbazeran (AO), and verapamil (CYP3A, CYP2C8) were used as positive controls. For CYP inhibition study, 1 mM ABT (a pan-cYP inhibitor) was pre-incubated with HHEP for 30 minutes at 37 °C before adding test compounds. Values are n >3 unless […]
as §2, §3

In brackets after ≈: the same amount, converted by molar mass.

The term solubility denotes how much of the substance goes into solution per volume. One may read the logD as lipophilicity at a set pH, counting ionised and neutral species. Read a low logD as a more hydrophilic compound. As usually defined, the Papp is the rate of passage across a membrane or cell layer, normalised by area and donor concentration. A lower Papp goes with slow passage. On to `COc1ccc(C2(NCC34C[C@H]5C[C@@H](C3)C[C@@H](C4)C5)COC2)cc1` [1a, N-(((3R,5R,7R)-Adamantan-1-yl)Methyl)-3-(4-Methoxyphenyl)Oxetan-3-Amine], for which the solubility at 24 h is 533 µM (≈ 175 µg/mL) in the series “Kinetic solubility” (pH 3), below 8.9 µM in “Kinetic solubility” (pH 7.4) and below 0.3 µM in “Kinetic solubility” (pH 10). The “Kinetic solubility, in words” value in “Kinetic solubility” (pH 3) was “markedly improved solubility”. In series [1], the logD came out at 3.6. In series [2], the “pH stability, in words” value is “reduced stability under neutral and basic conditions”. This compound showed a Papp at 1.5 h in series [3] of 25.8 ×10⁻⁶ cm/s.

As a reminder, the pKa is the negative logarithm of the acid dissociation constant. Lower therefore signals a stronger acid or weaker base. In series [4], `COc1ccc(CN2CCOCC2)cc1` [compound 18, 4-(4-Methoxybenzyl)Morpholine] showed a pKa of 7.25 and a pKaH of 7.25.

As for `COc1ccc(C(=O)Nc2ccc(NC(C)=O)cc2)cc1` [6b, N-(4-Acetamidophenyl)-4-Methoxybenzamide], the solubility at 24 h in the series “Kinetic solubility” (pH 3) stood at 13 µM (≈ 3.7 µg/mL); in “Kinetic solubility” (pH 7.4) it was 10 µM (≈ 2.84 µg/mL); in the series “Kinetic solubility” (pH 10), 8 µM (≈ 2.27 µg/mL). Also, in series [1], the logD is 1.92. In addition, the Papp at 1.5 h in series [3] worked out at 14 ×10⁻⁶ cm/s. In the series with human hepatocytes, this compound gave an HHEPG clearance of 57 μL min^−1 million^−1.

In turn, `O=S(=O)(c1ccccc1)c1ccc(C2(N3CCOCC3)COC2)cc1` [10a, 4-(3-(4-(Phenylsulfonyl)Phenyl)Oxetan-3-yl)Morpholine] returned a pKa in series [4] of 3.08. Further, the “Change in SFlogD of the carbonyl-to-oxetane replacement” value in series [1] (pH 7.4, amino-oxetane versus matched benzamide) is given as “+0.44”. The logD in series [1] came to 1.55. Moreover, in series [3], the Papp at 1.5 h worked out at 36.7 ×10⁻⁶ cm/s. Further, in the series with human hepatocytes, the HHEPG clearance is 4 μL min^−1 million^−1.

`COc1ccc(C(=O)N(C2CC2)C2CCN(C(C)=O)CC2)cc1` [5b, N-(1-Acetylpiperidin-4-yl)-N-Cyclopropyl-4-Methoxybenzamide]: the solubility at 24 h was found to be 465 µM (≈ 147 µg/mL) in the series “Kinetic solubility” (pH 3), 467 µM (≈ 148 µg/mL) in “Kinetic solubility” (pH 7.4) and 299 µM (≈ 94.6 µg/mL) in the series “Kinetic solubility” (pH 10). In addition, the logD in series [1] came out at 1.25. Also, the Papp at 1.5 h in series [3] came to 31.7 ×10⁻⁶ cm/s. The HHEPG clearance in the series on human hepatocytes was below 4 μL min^−1 million^−1.

On to `COc1ccc(C2(N(C3CC3)C3CCN(C(C)=O)CC3)COC2)cc1` [5a, 1-(4-(Cyclopropyl(3-(4-Methoxyphenyl)Oxetan-3-yl)Amino)Piperidin-1-yl)Ethan-1-One], for which the values for the solubility at 24 h in “Kinetic solubility” (pH 3), in “Kinetic solubility” (pH 7.4) and in the series “Kinetic solubility” (pH 10) were 299 µM (≈ 103 µg/mL), 223 µM (≈ 76.8 µg/mL) and 195 µM (≈ 67.2 µg/mL), respectively. In addition, the logD in series [1] amounted to 1.68. In addition, the Papp at 1.5 h in series [3] was found to be 38.8 ×10⁻⁶ cm/s. In the series with human hepatocytes, this compound returned an HHEPG clearance of 38 μL min^−1 million^−1.

`COc1ccc(C2(N3CCOCC3)COC2)cc1` [4a, 4-(3-(4-Methoxyphenyl)Oxetan-3-yl)Morpholine]: the “Kinetic solubility, in words” value in “Kinetic solubility” (across acidic, neutral, and basic conditions, compared with benzamide counterpart) is recorded as “solubility comparable to their analogous benzamides”. Moreover, the solubility at 24 h in “Kinetic solubility” (pH 3) came out at 486 µM (≈ 121 µg/mL); in the series “Kinetic solubility” (pH 7.4) it was 556 µM (≈ 139 µg/mL); in the series “Kinetic solubility” (pH 10), 492 µM (≈ 123 µg/mL). The compound further gave a pKa in series [4] of 4.61. In addition, the pKaH in series [4] came out at 4.61. Besides, the logD in series [1] was 1.17. Further, in series [3], the Papp at 1.5 h stood at 39.2 ×10⁻⁶ cm/s. The same compound showed an HHEPG clearance in the series on human hepatocytes of 4 μL min^−1 million^−1.

For `COc1ccc(CNCc2ccccc2)cc1` [S1], the pKa in series [4] is 8.81.
